From patent US20100168102A9, “Amide Derivatives as Kinase Inhibitors” (Devgen NV, priority 2005, published 2010)
Read-outs that look alike come from different tables or passages of the source.

How the values were obtained:
[1] = molecular target: T1, PKC epsilon (Homo sapiens, UniProt Q02156); assay: Biochemical assay for PKC epsilon (fluorescence polarization, Protein Kinase C Assay Kit, Red); conditions: read-out: IC50 μM PKCε
T1 construct: purchased Invitrogen P2282
T1 sequence (Q02156 1-737): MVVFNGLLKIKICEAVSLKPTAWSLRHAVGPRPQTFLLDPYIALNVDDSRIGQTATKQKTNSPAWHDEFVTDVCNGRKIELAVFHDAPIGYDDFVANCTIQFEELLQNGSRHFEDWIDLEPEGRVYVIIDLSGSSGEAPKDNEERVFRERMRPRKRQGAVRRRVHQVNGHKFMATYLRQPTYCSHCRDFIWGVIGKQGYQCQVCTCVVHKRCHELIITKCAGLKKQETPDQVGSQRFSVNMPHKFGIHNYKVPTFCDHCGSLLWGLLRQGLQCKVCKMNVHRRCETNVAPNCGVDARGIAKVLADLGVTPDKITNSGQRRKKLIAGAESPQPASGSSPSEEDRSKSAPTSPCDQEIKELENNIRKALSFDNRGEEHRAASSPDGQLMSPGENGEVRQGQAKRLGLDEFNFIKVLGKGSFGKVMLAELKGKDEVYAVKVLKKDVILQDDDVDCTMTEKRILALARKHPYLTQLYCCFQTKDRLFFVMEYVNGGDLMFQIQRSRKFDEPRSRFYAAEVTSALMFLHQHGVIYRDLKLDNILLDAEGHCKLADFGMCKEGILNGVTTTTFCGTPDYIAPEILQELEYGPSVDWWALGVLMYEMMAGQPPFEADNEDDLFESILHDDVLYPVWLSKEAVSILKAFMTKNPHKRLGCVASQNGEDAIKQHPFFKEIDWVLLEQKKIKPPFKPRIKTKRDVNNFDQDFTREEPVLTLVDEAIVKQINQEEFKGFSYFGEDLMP
In short: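 Read-out was fluorescence-polarization competition between phosphorylated substrate and a rhodamine PKC tracer for an anti-phosphoserine antibody, added with EDTA stop after an 80 min room-temperature kinase reaction with ATP and protein substrate (Mg2+/Ca2+ buffer). Enzyme (10 ng/ml final) was preincubated with compound for 30 min.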

[2] = molecular target: T2, human ROCKα/ROCKII mix (Homo sapiens, UniProt O75116); assay: Biochemical assay for ROCK (fluorescence polarization, ROCK IMAP Kit)
T2 construct: purchased Upstate Biotechnology 14-451

[3] = Table 2, compounds of Formula XIII

T2 sequence (O75116 11-552 limits assumed): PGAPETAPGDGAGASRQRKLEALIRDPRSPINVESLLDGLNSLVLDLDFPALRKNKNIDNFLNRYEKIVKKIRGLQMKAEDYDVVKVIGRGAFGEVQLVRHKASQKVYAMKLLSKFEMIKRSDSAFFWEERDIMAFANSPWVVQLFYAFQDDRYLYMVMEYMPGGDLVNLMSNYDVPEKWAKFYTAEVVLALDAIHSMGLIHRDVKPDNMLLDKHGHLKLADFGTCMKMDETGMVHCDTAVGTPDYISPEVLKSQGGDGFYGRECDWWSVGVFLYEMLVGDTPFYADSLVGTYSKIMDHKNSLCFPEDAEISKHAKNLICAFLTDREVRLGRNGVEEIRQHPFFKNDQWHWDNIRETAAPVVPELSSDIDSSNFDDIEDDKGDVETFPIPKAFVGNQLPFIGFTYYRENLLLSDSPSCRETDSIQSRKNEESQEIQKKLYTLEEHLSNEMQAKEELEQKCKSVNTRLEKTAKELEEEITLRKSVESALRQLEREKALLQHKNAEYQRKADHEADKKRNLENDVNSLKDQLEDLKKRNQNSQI

## COc1ccc(NC(=O)NCC(N)c2ccc(C(=O)Nc3ccncc3)cc2)cc1 (stereo not shown) [Compound 30, 4-{1-amino-2-[3-(4-methoxy-phenyl)-ureido]-ethyl}-N-pyridin-4-yl-benzamide]
[1]
  IC50: 0.5 to 5 µM
[2]
  IC50: 0.05 to 0.5 µM

## CC(=O)NCC(N)c1ccc(C(=O)Nc2ccncc2)cc1 (stereo not shown) [Compound 31, 4-(2-Acetylamino-1-amino-ethyl)-N-pyridin-4-yl-benzamide]
[1]; [3]
  IC50: 5 to 50 µM
[2]; [3]
  IC50: 0.5 to 5 µM

## CCCC(=O)NCC(N)c1ccc(C(=O)Nc2ccncc2)cc1 (stereo not shown) [Compound 32, 4-(1-Amino-2-butyrylamino-ethyl)-N-pyridin-4-y-benzamide]
[1]; [3]
  IC50: 0.5 to 5 µM
[2]; [3]
  IC50: 0.5 to 5 µM

## CCCCC(=O)NCC(N)c1ccc(C(=O)Nc2ccncc2)cc1 (stereo not shown) [Compound 33, 4-(1-Amino-2-pentanoylamino-ethyl)-N-pyridin-4-yl-benzamide]
[1]; [3]
  IC50: 0.5 to 5 µM
[2]; [3]
  IC50: 0.5 to 5 µM

## CC(C)CC(=O)NCC(N)c1ccc(C(=O)Nc2ccncc2)cc1 (stereo not shown) [Compound 34, 4-[1-Amino-2-(3-methyl-butyrylamino)-ethyl]-N-pyridin-4-yl-benzamide]
[1]; [3]
  IC50: 0.5 to 5 µM
[2]; [3]
  IC50: 0.5 to 5 µM

## CCC(C)C(=O)NCC(N)c1ccc(C(=O)Nc2ccncc2)cc1 (stereo not shown) [Compound 35, 4-[1-Amino-2-(2-methyl-butyrylamino)-ethyl]-N-pyridin-4-yl-benzamide]
[1]; [3]
  IC50: 0.5 to 5 µM
[2]; [3]
  IC50: 0.5 to 5 µM

## CC(C)CCC(=O)NCC(N)c1ccc(C(=O)Nc2ccncc2)cc1 (stereo not shown) [Compound 36, 4-[1-Amino-2-(4-methyl-pentanoylamino)-ethyl]-N-pyridin-4-yl-benzamide]
[1]; [3]
  IC50: 0.5 to 5 µM
[2]; [3]
  IC50: 0.5 to 5 µM

## NC(CNC(=O)C1CC1)c1ccc(C(=O)Nc2ccncc2)cc1 (stereo not shown) [Compound 39, 4-[1-Amino-2-(cyclopropanecarbonyl-amino)-ethyl]-N-pyridin-4-yl-benzamide]
[1]; [3]
  IC50: 0.5 to 5 µM
[2]; [3]
  IC50: 0.5 to 5 µM

## CC1CC1C(=O)NCC(N)c1ccc(C(=O)Nc2ccncc2)cc1 (stereo not shown) [Compound 40, 4-{1-Amino-2-[(2-methyl-cyclopropanecarbonyl)-amino]-ethyl}-N-pyridin-4-yl-benzamide]
[1]; [3]
  IC50: 0.5 to 5 µM
[2]; [3]
  IC50: 0.5 to 5 µM

## NC(CNC(=O)C1CCC1)c1ccc(C(=O)Nc2ccncc2)cc1 (stereo not shown) [Compound 41, 4-[1-Amino-2-(cyclobutanecarbonyl-amino)-ethyl]-N-pyridin-4-yl-benzamide]
[1]; [3]
  IC50: 0.5 to 5 µM
[2]; [3]
  IC50: 0.5 to 5 µM

## NC(CNC(=O)C1CCCC1)c1ccc(C(=O)Nc2ccncc2)cc1 (stereo not shown) [Compound 42, 4-[1-Amino-2-(cyclopentanecarbonyl-amino)-ethyl]-N-pyridin-4-yl-benzamide]
[1]; [3]
  IC50: 0.5 to 5 µM
[2]; [3]
  IC50: 0.5 to 5 µM

## NC(CNC(=O)C1CCCCC1)c1ccc(C(=O)Nc2ccncc2)cc1 (stereo not shown) [Compound 43, 4-[1-Amino-2-(cyclohexanecarbonyl-amino)-ethyl]-N-pyridin-4-yl-benzamide]
[1]; [3]
  IC50: 5 to 50 µM
[2]; [3]
  IC50: 0.5 to 5 µM

## NC(CNC(=O)CC1CC1)c1ccc(C(=O)Nc2ccncc2)cc1 (stereo not shown) [Compound 46, 4-[1-Amino-2-(2-cycopropyl-acetylamino)-ethyl]-N-pyridin-4-yl-benzamide]
[1]; [3]
  IC50: 0.5 to 5 µM
[2]; [3]
  IC50: 0.5 to 5 µM

## NC(CNC(=O)CC1CCCC1)c1ccc(C(=O)Nc2ccncc2)cc1 (stereo not shown) [Compound 47, 4-[1-Amino-2-(2-cyclopentyl-acetylamino)-ethyl]-N-pyridin-4-yl-benzamide]
[1]; [3]
  IC50: 0.5 to 5 µM
[2]; [3]
  IC50: 0.5 to 5 µM

## NC(CNC(=O)CC1C=CCC1)c1ccc(C(=O)Nc2ccncc2)cc1 (stereo not shown) [Compound 48, 4-[1-Amino-2-(2-cyclopent-2-enyl-acetylamino)-ethyl]-N-pyridin-4-yl-benzamide]
[1]; [3]
  IC50: 0.5 to 5 µM
[2]; [3]
  IC50: 0.05 to 0.5 µM

## NC(CNC(=O)CC1Cc2ccccc2C1)c1ccc(C(=O)Nc2ccncc2)cc1 (stereo not shown) [Compound 49, 4-[1-Amino-2-(2-indan-2-yl-acetylamino)-ethyl]-N-pyridin-4-yl-benzamide]
[1]; [3]
  IC50: 0.5 to 5 µM
[2]; [3]
  IC50: 0.05 to 0.5 µM

## NC(CNC(=O)CC1CCCCC1)c1ccc(C(=O)Nc2ccncc2)cc1 (stereo not shown) [Compound 50, 4-[1-Amino-2-(2-cyclohexyl-acetylamino)-ethyl]-N-pyridin-4-yl-benzamide]
[1]; [3]
  IC50: 0.5 to 5 µM
[2]; [3]
  IC50: 0.5 to 5 µM
